Patent publication US20020004518A1, “Method of treating disorders related to protease-activated receptors-induced cell activation” (priority 2000, published 2002)

How the values were obtained:
[1] = test system: PARs; assay: Inhibition of platelet aggregation induced by PARs (thrombin-triggered, turbidimetric); assay type: cell-based
Description: A suitable in vitro inhibition assay can be used to preliminarily evaluate a fused pyrazolyl compound's ability to inhibit cell activation induced by PARs, which are pre-activated by thrombin. For example, a platelet suspension in Tyrode's solution can be prepared and incubated with a compound to be tested, thrombin added to trigger platelet aggregation, and the aggregation measured turbidimetrically with a light-transmission aggremometer. In vivo screening can be performed by following procedures well known in the art.
In vitro inhibitory activity of the fused pyrazolyl compounds was preliminarily evaluated by the following method: A platelet suspension in a Tyrode's solution was prepared according to a procedure described by Wu et al., Br. J Pharm., 1995, 116: 1973-1978. The Tyrode's solution had the following composition (mM): NaCl (136.8), KCl (2.8), NaHCO3 (11.9), MgCl2 (1.1), NaH2PO4 (0.33), CaCl2 (1.0), and glucose (11.2). The platelet number in the platelet suspension was adjusted to 4.5×10^8 platelets/mL with the aid of a Coulter Counter (Model ZM). […] Platelet aggregation was measured turbidimetrically with a light-transmission aggremometer. The extent of platelet aggregation was determined at 5 minutes after the addition of thrombin. The percentage of aggregation was calculated by the method described in Teng et al., Biochem. Biophys. […]

[2] = test system: platelet activating factors other than PARs; assay: Effect on platelet activating factors other than PARs; assay type: cell-based; conditions: selectivity versus other platelet activators

SMILES | melting point [°C] | inhibitory activity on platelet aggregation ([1]; platelet suspension in Tyrode's solution, 3 min preincubation at 37° C., thrombin added, aggregation read at 5 minutes) | activity relative to several other tested compounds, e.g. 1-benzyl-3-(4′-ethoxycarbonyl)phenyl-indazole ([1]; thrombin-induced platelet aggregation, fold versus other tested compounds) | effect on platelet activating factors other than PARs [2]
CCN(CC)Cc1ccc(-c2nn(Cc3ccccc3)c3ccccc23)o1 [Example 17, 1-benzyl-3-(5′-diethylaminomethyl-2′-furyl)indazole] |  | much higher activity |  | 
CCOC(=O)c1cccc(-c2nn(Cc3ccccc3)c3ccccc23)c1 [Example 19, 1-benzyl-3-(3′-ethoxycarbonylphenyl)indazole] | 85 to 86 |  | at least 10 times | little or no effect

Now from value to compound, other results behind:

melting point [°C] | SMILES | inhibitory activity on platelet aggregation ([1]; platelet suspension in Tyrode's solution, 3 min preincubation at 37° C., thrombin added, aggregation read at 5 minutes) | activity relative to several other tested compounds, e.g. 1-benzyl-3-(4′-ethoxycarbonyl)phenyl-indazole ([1]; thrombin-induced platelet aggregation, fold versus other tested compounds) | effect on platelet activating factors other than PARs [2]
190 to 192 | O=C(O)c1cccc(-c2nn(Cc3ccccc3)c3ccccc23)c1 [Example 21, 1-benzyl-3-(3′-hydroxycarbonylphenyl)indazole] |  |  | 
110 to 112 | OCc1ccc(-c2nn(Cc3ccccc3)c3ccccc23)cc1 [Example 22, 1-benzyl-3-(4′-hydroxymethylphenyl)indazole] |  |  | 
205 to 207 | O=C(O)c1ccc(-c2nn(Cc3ccccc3)c3ccccc23)cc1 [Example 20, 1-benzyl-3-(4′-hydroxycarbonylphenyl)indazole] |  |  | 
